In US6893829B2, “Human leukocyte 12-lipoxygenase and its role in the pathogenesis of disease states” (City of Hope, priority 1992, dated 2005):

Legend:
[1] = system: MO binding to HAEC; assay: Monocyte binding to human aortic endothelial cells; format: cell-based
Procedure: The rate of atherosclerosis is accelerated in humans with diabetes mellitus (DM). Applicants recently published evidence that high glucose (HG) exposure of human aortic endothelial cells (HAEC) selectively increases monocyte (MO) but not neutrophil binding (56). HG exposure to EC can increase arachidonic acid (AA) release and lipoxygenase (LO) production formation. In the current study, applicants evaluated the role of 12- and 15-LO products in MO binding to HAEC. Culture of HAEC in HG (25 mM) for two passages increased MO binding compared to cells maintained in 5.5 mM glucose (239±30 cells/field HG vs 111±7, p<0.01). Phenidone (10^−6M), an inhibitor of the 12-LO pathway (50 percent inhibition of HG-induced binding, p<0.05). […] 12(S)-HETE added to HAEC cultured in 5.5 mM glucose increased MO binding (66±6 cells/field control vs 114±4 12-HETE 10^−10M, p<0.01). […] In summary, (1) elevated glucose increases MO binding to HAEC and this effect can be reduced by blockade of the LO pathway; (2) 12 but not 15-LO products, can increase MO binding.

[2] = system: MAP kinase activity; assay: AII- and 12-HETE-induced mitogenic (MAP kinase) activities with 12-LO inhibitors; format: cell-based, Chinese hamster
Procedure: It has been discovered that the administration of AII results in biphasic activation of MAP kinase (all of the MAP kinase experiments were conducted in CHO-AT1a cells—AII receptor AT1a cDNA transfected Chinese hamster ovary cells). […] Thus, the administration of a 12-LO inhibitor decreases AII- and/or 12-HETE-induced MAP kinase activity, thereby decreasing the effects which AII and/or 12-HETE have on cell growth and development.

[3] = system: MCF-7 cells; assay: Proliferation of MCF-7 cells; format: cell-based, human; conditions: baicalein 10 μM, CDC 10^−5M, NDGA 30 μM, ibuprofen 10^−5M
[4] = system: VEGF in vascular smooth muscle cells (VSMC); assay: VEGF protein, mRNA and secretion in VSMC (Western, Northern, EIA); format: cell-based, Porcine and human
Procedure: In addition to the work reflected in FIGS. 8-10, it has now been discovered that AII, 12-HETE and hyperglycemia (HG) increase VEGF production in vascular smooth muscle cells (VSMC). Porcine and human VSMC were cultured for at least two passages under normal glucose (NG, 5.5 mM) or under HG conditions. VEGF protein expression was determined by Western blotting and VEGF mRNA by Northern blots. HG alone increased the level of VEGF mRNA (2.8-fold) and protein (3.2-fold). […] In addition, HG increased the secretion of VEGF into the medium as measured by a specific EIA (56.2±4 ng/ml NG vs 73±5 HG, p<0.02).

[5] = system: 12-HETE in L6 muscle cells; assay: 12-HETE in L6 muscle cells; format: cell-based, rat; conditions: n = 2
Procedure: 6. […] L6 muscle cells are skeletal muscle cells from rats which have been used to investigate the mechanisms of insulin action. When L6 muscle cells are incubated in xylose (5.5, mM), they are much more responsive to insulin when compared to cells in regular glucose (5.5 mM) or high glucose (25 mM). […] Thus, elevated 12-Lipoxygenase products, such as 12-HETE, appear to play an important role in reduced insulin metabolic actions caused by high glucose.

[6] = system: beta sub-unit of the human insulin receptor; assay: Insulin receptor phosphorylation in rat-1-fibroblasts containing the human insulin receptor; format: cell-based; conditions: baicalein 10^−6M, last 24 hours
Procedure: 7. Baicalein, a selective 12-LO inhibitor, can prevent glucose-induced insulin resistance. To perform these studies, applicants cultured rat-1-fibroblasts that have been engineered to contain the human insulin receptor for ten days in high glucose (25 mM). For the last 24 hours, the cells were cultured with 10^−6M baicalein. The marked bands represent the phosphorylated beta sub-unit of the human insulin receptor (FIG. 23). As the band becomes lighter, it represents reduced insulin action. Lane 1 represents the insulin receptor phosphorylation in normal glucose (5.5 mM) vs the reduced insulin action in lane 5 (25 mM glucose).

[7] = system: 12-LO activity in HSMC; assay: 12-HETE release and cell-associated 12-HETE in HSMC (HPLC/RIA); format: cell-based, human; conditions: baicalein 10^−5 mol/L, data not shown
Procedure: FIG. 3A illustrates the effect of AII on 12-HETE release by HSMC. HSMC were grown to confluency. Serum was removed and cells were incubated in media 199 containing 0.4% fetal bovine serum (FBS) and 0.2% BSA for 18 hours. Cells were then washed with DME media and incubated for 20 minutes in DME media containing 0.2% BSA. AII was added to the cells for five and ten minutes at the concentrations of 10^−9 and 10^−8 mol/L. Media were collected for HETE assay. • *p<0.05 vs control n=4
FIG. 3B illustrates the effect of AII on cell-associated 12-HETE levels in HSMC. After collecting supernatants, cells were washed with ice-cold PBS and harvested by scraping for the assay of cell-associated HETEs. • *p<0.02 vs control n=4
HSMC and HAEC monolayers were washed twice with ice-cold PBS and then processed for RNA extraction or western analysis as described below. For hydroxyeicosatetraenoic acid (HETE) assay, approximately 24 hours prior to an experiment, the medium was replaced with medium 199 containing 0.4% FBS and 0.2% BSA.
These assays were performed using previously published methods (10,11). Briefly, 12- and 15-HETE are extracted from supernatants and cells on C18 mini columns (Analytichem International, CA) and measured using our validated reverse phase gradient HPLC and (RIA) methods.
Another major aspect of this invention is the discovery that AII increases the activity and expression of 12-LO mRNA and protein in HSMC.

[8] = system: 12-LO in RINm5F cells; assay: 12-LO protein, mRNA and activity in RINm5F cells; format: cell-based, rat
Procedure: FIG. 12 illustrates a western immunoblot of proteins isolated from the insulin producing rat beta cell line, RINm5F showing the effect of interleukin-1β on 12-LO protein expression. In these studies, 25 μg of protein was isolated from the cells grown for 16 hours in reduced serum-containing medium 0.4% alone or along with IL-1β (0.1 ng/ml).
(§1) Applicants have discovered that direct addition of the 12-LO products 12-S-HETE or 12-HPETE directly decreases cellular growth as reflected by decreased ^3H thymidine incorporation or DNA synthesis in the rat pure beta cell line RIN-M5F.
(§2) It has been discovered that IL-1β induces 12-LO protein and mRNA expression in RIN-M5F cells and 12-LO mRNA expression in rat islets.

[9] = system: 12-LO in rat pancreatic islets; assay: 12-HETE production and 12-LO mRNA in rat pancreatic islets; format: cell-based
Excerpt: as §1, §2

[10] = system: leukocyte-type 12-LO in PVSMC; assay: 12-LO activity, mRNA and protein in PVSMC; format: cell-based, porcine; conditions: 24 hours; for increase in 12-HETE HPLC peak (12-LO enzyme activity): 2.5 ng/ml; for 12-LO mRNA expression in PVSMC: FIG. 14
Procedure: FIG. 14A illustrates the dose-dependent effect of the cytokine interleukin-1β on 12-LO mRNA expression in porcine aortic smooth muscle cells (PVSMC). Confluent PVSMC growth in normal glucose medium was serum depleted for 24 hours by placing in medium+0.2% BSA+0.4% FCS. This medium was then freshly replaced along with IL-1β and the cells incubated for a further 24 hours. At the end of the incubation, total RNA was extracted from the cells using RNA-STAT. This RNA was the subjected to reverse-transcriptase polymerase chain reaction (RT-PCR) to detect and quantitate leukocyte-type 12-LO mRNA (333 bp PCR product, upper panel) using our well established techniques. The expression of GAPDH mRNA 284 bp, lower panel) was used as an internal control for PCR and for quantitation.
FIG. 14B illustrates the effect of the cytokine IL-4 on 12-LO mRNA expression in PVSMC. The ells were treated for 24 hours with IL-4 and 12-LO mRNA quantitated as described in the legend to FIG. 14A. It is clearly seen that IL-4 also increases 12-LO mRNA expression similar to IL-1β.
FIG. 14C illustrates the effect of the cytokine IL-8 on 12-LO mRNA expression in PVSMC. The cells were treated for 24 hours with IL-8 and 12-LO mRNA quantitated as described under legend 14A.
(§3) The cells were cultured in DME (normal glucose) and treated for 24 hours±cytokines in medium containing 0.2% BSA and 0.4% serum. Intracellular 12-LO enzyme activity was measured by HPLC, leukocyte-type 12-LO protein expression by immunoblotting and 12-LO mRNA by a specific reverse transcriptase polymerase chain reaction (RT-PCR). […] Treatment with these cytokines (0.5-5 ng/ml) also led to an increase (1.4-2.5-fold) in 12-LO protein expression 72 kD). In addition, all three cytokines (2.5 ng/ml) could induce a significant increase in PVSMC DNA synthesis (1.280.08, 1.67±0.11 and 1.3±0.07 fold increase in ^3H thymidine incorporation with IL-1, -4, and -8 respectively, p<0.01).

[11] = system: PVSMC; assay: PVSMC DNA synthesis (3H thymidine incorporation); format: cell-based, porcine; conditions: 2.5 ng/ml
Procedure: as §3

[12] = system: VEGF protein in MCF-7 cells; assay: VEGF protein expression in breast cancer cells (immunoblot); format: cell-based, human; conditions: MCF-7, 24 hours
Procedure: FIG. 8 illustrates the dose-dependent effect of platelet-derived growth factor (PDGF) on vascular endothelial growth factor (VEGF) protein (42 kD) expression in MCF-7 breast cancer cells. Nearly confluent MCF-7 cells were serum starved for 24 hours by placing in DME medium+0.4% FCS and 0.2% BSA. This medium was then freshly replaced and the cells incubated for another 24 hours with PDGF. At the end of the incubation, the cell monolayers were washed with ice-cold PBS, scraped into PBS and pelleted by centrifugation. The cell pellets were then lysed and equal amounts of protein (50 μg) subjected to electrophoresis and immunoblotting to detect VEGF using a specific antibody from Santa Cruz Biotechnology. Detection was by a chemiluminiscent technique.
FIG. 9 illustrates the effect of epidermal growth factor (EGF) and the 12-lipoxygenase product 12-HETE on VEGF protein expression in the MCF-7 breast cancer cell line MCF-7. MCF-7 cells were treated with EGF and 12-HETE for 24 hours and VEGF protein identified as described in the legend to FIG. 8.

[13] = Calcium gluconate infusion: urinary PGI2 and 12-HETE; format: in vivo, human
Excerpt: Vascular tissue from diabetic animals and man metabolize arachidonic acid differently from normals. PGI2 is a vasodilator, antithrombolic, and renin secretagogue while 12-hydroxyeicosatetraenoic acid (12-HETE) is proinflammatory and inhibits cyclooxygenase (CO). Applicants earlier reported a prostacyclin (PGI2) deficiency in diabetics with hyporeinemic hypoaldosteronism (HH) (46). Applicants explored the production of the CO product, PGI2 and the lipoxygenase (LO) product, 12-HETE in NIDDM patients with normal renal function (NR), those with microalbuminuria (MiA0, macroabluminuria (MaA) and HH patients. PGI2 (6 keto PGF^1) and 12-HETE were measured in urine by HPLC followed by RIA using published methods. Results are:
Low dose calcium infusions have been previously shown to increase PGI2, probably via activation of tissue phospholipases. […] This supports the concept that a defect in prostacyclin formation exists in NIDDM.

[14] = NIDDM patients with microalbuminuria
[15] = normal subjects, three hour infusion

Compound: 12(R)-Hydroxyeicosatrienoic acid
- lowest concentration showing effects on MO binding [1]: 10^−12 M

Compound: CCCCC[C@H](O)/C=C/C=C\C/C=C\C/C=C\CCCC(=O)O [15(S)-HETE]
- MO binding to HAEC ([1]; 15(S)-HETE 10^−6 to 10^−12M): did not stimulate

Compound: N#C/C(=C\c1ccc(O)c(O)c1)C(=O)OC/C=C/c1ccccc1 [CDC]
- AII- and 12-HETE-induced mitogenic activities [2]: dose-dependently reduce
- proliferation of MCF-7 cells [3]: significantly inhibited

Compound: O=C[C@H](O)[C@@H](O)[C@H](O)[C@H](O)CO [HG, glucose]
- level of VEGF mRNA ([4]; HG alone vs NG 5.5 mM): 2.8 fold
- level of VEGF protein ([4]; HG alone vs NG 5.5 mM): 3.2 fold
- secretion of VEGF into the medium (EIA) ([4]; HG, NG 56.2±4): 73 ± 5 ng/mL
- 12-HETE in the cells ([5]; high glucose 25 mM): 620 pg/total cells
- 12-HETE release in the media ([5]; high glucose 25 mM): 110.3 pg/mL
- 12-HETE in the cells ([5]; regular glucose 5.5 mM): 472 pg/total cells
- 12-HETE release in the media ([5]; regular glucose 5.5 mM): 101.8 pg/mL
- MO binding ([1]; HAEC in HG 25 mM for two passages, 5.5 mM glucose 111±7): 239±30 cells/field

Compound: CC(Cc1ccc(O)c(O)c1)C(C)Cc1ccc(O)c(O)c1 (stereo not shown) [NDGA]
- proliferation of MCF-7 cells [3]: significantly inhibited

Compound: O=C1CCN(c2ccccc2)N1 [Phenidone]
- inhibition at 1 µM ([1]; Homo sapiens, Phenidone 10^−6M, read-out: inhibition of HG-induced MO binding): 50%

Compound: O=C[C@H](O)[C@@H](O)[C@H](O)CO [Xylose, xylose]
- 12-HETE in the cells ([5]; xylose 5.5 mM): 398 pg/total cells
- 12-HETE release in the media ([5]; xylose 5.5 mM): 53.2 pg/mL

Compound: O=c1cc(-c2ccccc2)oc2cc(O)c(O)c(O)c12 [baicalein]
- insulin receptor phosphorylation in 25 mM glucose [6]: restoration of insulin receptor phosphorylation
- AII- and 12-HETE-induced mitogenic activities [2]: dose-dependently reduce
- proliferation of MCF-7 cells [3]: significantly inhibited
- 12-HETE levels in response to AII [7]: could be reduced

Compound: CC(C)Cc1ccc(C(C)C(=O)O)cc1 (stereo not shown) [ibuprofen]
- proliferation of MCF-7 cells [3]: not

Compound: IL-1β: cytokine interleukin-1β
- increase in 12-LO protein expression ([8]; IL-1β 0.1 ng/ml, 16 hours): 2 fold
- 12-LO pathway activity (radioimmunoassay for 12-HETE) ([8]; RIN-M5F): increased 12-LO pathway activity
- 12-LO mRNA expression (competitive PCR) ([8]; RIN-M5F, 16 hours): concomitant increase
- increase in leukocyte 12-LO protein expression ([8]; human IL-1B at 0.2 ng): approximately two
- 12-LO mRNA and enzyme activity in purified Sprague-Dawley rat islets [9]: increased expression of 12-LO mRNA and enzyme activity
- immunoreactive release of 12-S-HETE ([9]; IL-1B 2.5 ng/ml, basal 92): 250 pg/ml/40 islets
- increase in 12-HETE HPLC peak (12-LO enzyme activity) [10]: 51%
- 12-LO mRNA expression in PVSMC [10]: dose-dependent increase

Compound: IL-4: cytokine IL-4
- increase in 3H thymidine incorporation [11]: 1.67±0.11 fold
- increase in 12-HETE HPLC peak (12-LO enzyme activity) [10]: 43%
- 12-LO mRNA expression in PVSMC [10]: increases

Compound: PDGF
- VEGF protein expression [12]: dose-dependent increase

Compound: calcium gluconate
- 12-HETE [13, 14]: further stimulation
- PGI2 [13, 14]: no increase
- 12-HETE [13, 15]: highly significant increase
- PGI2 [13, 15]: highly significant increase
